Data: PMC4823791, “A dual drug regimen synergistically blocks human parainfluenza virus infection” (Scientific Reports, 2016)

Columns and labels:
[1] = biological target: T1, hPIV-3 HN (haemagglutinin-neuraminidase) (Human parainfluenza 3 virus (strain NIH 47885), UniProt P08492); assay: fluorogenic MUN neuraminidase inhibition screen; type: biochemical
Excerpt: fluorogenic MUN neuraminidase inhibition screen on hPIV-3 HN (haemagglutinin-neuraminidase) | Evans blue and erythrosine sodium, with a neuraminidase inhibition of […]

[2] = biological target: T1, hPIV-3 HN (haemagglutinin-neuraminidase); assay: STD-NMR; type: binding; settings: 5 mM zanamivir alone, 50 mM NaOAc, 5 mM CaCl2, pD 4.6, 283 K; purified UV-inactivated virus particles
[3] = biological target: T1, hPIV-3 HN (haemagglutinin-neuraminidase); assay: Lineweaver-Burk kinetics, MUN fluorescence; type: biochemical; settings: virus particles; MUN 2-20 mM, so Km lies above the tested range (extrapolated): unreliable
Procedure: Lineweaver-Burk kinetics, MUN fluorescence on hPIV-3 HN (haemagglutinin-neuraminidase) | constant (KM) value ... was calculated from this point of convergence

[4] = biological target: T1, hPIV-3 HN (haemagglutinin-neuraminidase); assay: fluorogenic MUN neuraminidase inhibition assay; type: biochemical; settings: neuraminidase activity; 2 mM MUN, pH 4.6, 5 mM CaCl2, 37 °C, 30 min; PEG-precipitated intact virus; non-competitive
[5] = biological target: T1, hPIV-3 HN (haemagglutinin-neuraminidase); assay: Lineweaver-Burk kinetics, MUN fluorescence; type: biochemical; settings: non-competitive; MUN 2-20 mM, suramin 0, 10, 16 μM; virus particles

T1 sequence (P08492 whole entry): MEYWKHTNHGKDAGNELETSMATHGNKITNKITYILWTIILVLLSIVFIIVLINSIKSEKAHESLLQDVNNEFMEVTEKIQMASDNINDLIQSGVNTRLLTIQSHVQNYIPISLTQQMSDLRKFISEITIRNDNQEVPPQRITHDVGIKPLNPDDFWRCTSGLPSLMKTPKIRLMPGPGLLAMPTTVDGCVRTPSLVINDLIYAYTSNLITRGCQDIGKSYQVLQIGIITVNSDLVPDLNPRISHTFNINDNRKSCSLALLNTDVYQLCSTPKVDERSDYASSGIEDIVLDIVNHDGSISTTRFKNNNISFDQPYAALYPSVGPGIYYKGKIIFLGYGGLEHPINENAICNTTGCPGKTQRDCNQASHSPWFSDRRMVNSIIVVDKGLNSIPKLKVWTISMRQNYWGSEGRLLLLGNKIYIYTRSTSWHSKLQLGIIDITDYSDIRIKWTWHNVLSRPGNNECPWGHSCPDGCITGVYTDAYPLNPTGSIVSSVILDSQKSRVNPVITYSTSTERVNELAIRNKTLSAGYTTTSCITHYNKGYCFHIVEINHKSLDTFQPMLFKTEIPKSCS

Structure (SMILES): Cc1cc(-c2ccc(/N=N/c3ccc4c(S(=O)(=O)O)cc(S(=O)(=O)O)c(N)c4c3O)c(C)c2)ccc1/N=N/c1ccc2c(S(=O)(=O)O)cc(S(=O)(=O)O)c(N)c2c1O [Evans blue]
- inhibition at 100 µM [1]: 79.4 ± 1.8%

Structure (SMILES): CC(=O)N[C@H]1[C@H]([C@H](O)[C@H](O)CO)OC(C(=O)O)=C[C@@H]1N=C(N)N [compound 3, zanamivir]
- STD-NMR [2]: STD-NMR signals of both drugs were obtained, thus confirming their binding to HN

Structure (SMILES): CC(=O)N[C@H]1[C@H]([C@H](O)[C@H](O)CO)O[C@@](Oc2ccc3c(C)cc(=O)oc3c2)(C(=O)O)C[C@@H]1O [compound 6, 2′-(4-methylumbelliferyl) α-D-N-acetylneuraminide]
- KM [3]: 30.3 ± 1.02 mM

Structure (SMILES): Cc1ccc(C(=O)Nc2ccc(S(=O)(=O)O)c3cc(S(=O)(=O)O)cc(S(=O)(=O)O)c23)cc1NC(=O)c1cccc(NC(=O)Nc2cccc(C(=O)Nc3cc(C(=O)Nc4ccc(S(=O)(=O)O)c5cc(S(=O)(=O)O)cc(S(=O)(=O)O)c45)ccc3C)c2)c1 [compound 7, suramin]
- IC50 [4]: 13.5 µM
- Ki [5]: 5.06 ± 0.62 µM

Structure (SMILES): O=C1OC2(c3ccccc31)c1cc(I)c(O)c(I)c1Oc1c2cc(I)c(O)c1I [erythrosine sodium]
- inhibition at 100 µM [1]: 92.8 ± 0.9%
